The subject of this test is dithranol-induced mouse ear inflammation (edema). Description: Dithranol-induced mouse ear inflammation test. Type of test: in vivo. Particulars: Swiss male mice, 10 per group; 20 μL solution painted on left ear at Time 0 and +16 h; dithranol 30 μg in 20 μL acetone at +0.5 h; 6 mm ear disks weighed at +24 h. The procedure:
Dithranol is a known inflammatory agent, which induces inflammatory response by releasing free radicals.
The modulatory effects of the compositions of the present invention were tested using the dithranol-induced mouse ear inflammation test described in “Methods in Molecular Biology, 2003, Vol 225; 129-137”, and in “Br. J. Pharmacol. 1991, 104; 990-994”.
Swiss male mice (10 per group) of 6 to 8 weeks old; weighing 28-32 g each; were used. Mice had free access to food and water.
The compounds of the invention were dissolved in water or ethanol (depending on their solubility). 20 μL of the solution containing the compound of the invention, or their combinations, was painted on the left ear (back and front; 10+10 μL) using a Hamilton syringe within 30 seconds (Time 0) The compound tested, and their combinations, are reported in the following
A similar volume of vehicle (water or ethanol) was applied to the other ear (control ear).
After 30 minutes (Time+0.5 h) the irritant, dithranol, 30 μg in 20 μL of acetone was painted on the left ear (back and front, 10+10 μL).
A similar volume of acetone was applied to the other ear.
A group of mice treated only with dithranol (no treatment with the compounds of the invention) was present (control group).
An electric hair dryer for a few seconds to evaporate the solvent was used.
The compounds of the invention were administered again 16 hours from the first treatment (Time+16 h).
After 24 hours from the first treatment (Time+24 h) the animals were killed with an overdose of diethyl ether and the ears were cut off.
A disk from the middle part of each ear was cut off, using a sharp punch 6 mm in diameter.
The disks samples were weighted on a suitable balance, and the extent of the edema (as percentage of inhibition) was calculated according to the formula reported on page 991, right column, of “Br. J. Pharmacol. 1991, 104; 990-994” mentioned above.
Regarding `O=C(O)CCCC[C@@H]1SC[C@@H]2NC(=O)N[C@@H]21` [Biotin], the “% Inhibit. (extent of the edema as percentage of inhibition)” value came to 6%.

In the case of `CC(C)(CO)[C@@H](O)C(=O)NCCCO` [Panthenol], the “% Inhibit. (extent of the edema as percentage of inhibition)” value is 7%.

Turning to Vitamin B12, the “% Inhibit. (extent of the edema as percentage of inhibition)” value is 8%.

Turning to Vitamin E, the “% Inhibit. (extent of the edema as percentage of inhibition)” value is listed as 8%.

Consider `C[N+](C)(C)C[C@H](O)CC(=O)[O-]` [L-carnitine], for which the “% Inhibit. (extent of the edema as percentage of inhibition)” value is 9%.

Take `CC(C)=CCC[C@](C)(O)C1CC=C(C)CC1` (stereo partly drawn) [Bisabolol]: the “% Inhibit. (extent of the edema as percentage of inhibition)” value was 6%.

The record behind these values is US20140294921A1, “COMPOSITION FOR TIPICAL USE FOR TREATING SKIN DISORDERS” (SIGMA-TAU INDUSTRIE FAMACEUTICHE RIUNITE S.P.A., priority 2010, published 2014).
